The text below walks through data of EP4631962A1, “PEPTIDE FOR CARTILAGE REGENERATION, AND USES THEREOF” (Caregen Co., Ltd., priority 2022, dated 2024).

Series [1] relates to human adipose-derived mesenchymal stem cells (AD-MSC). The series is described as follows: CCK-8 assay, cytotoxicity in AD-MSC. The format is cell-based. Conditions: different concentrations, after 7 days, FIG. 3. The protocol:
(§1) The cytotoxicity of Peptide-1 or Peptide-2 upon addition to human-derived chondrocyte cells (C28/I2, human chondrocyte cell line) and human adipose-derived mesenchymal stem cells (AD-MSC) was analyzed using a CCK-8 assay.
Background: Tetrazolium dyes change colour on reduction, which living cells bring about.

The test system of series [2] is human-derived chondrocyte cells (C28/I2, human chondrocyte cell line). The series is described as follows: CCK-8 assay, cytotoxicity in chondrocytes. The format is cell-based. The settings on record: different concentrations, after 3 days, FIG. 1 and FIG. 2. The procedure:
as §1
Specifically, human-derived chondrocytes were seeded in a 96-well plate at a density of 3 × 10^3 cells/well and cultured in DMEM medium (cat. 11995-065, Gibco) for 24 hours.

Where a SMILES comes first, the peptide text is derived from it. Where no end group is shown, it is not given here.

Take KRRRKRK [Peptide-1, KRRRKRK]: the “toxicity (CCK-8 activity)” value in series [1] and in series [2] was “did not exhibit toxicity” each time.

Turning to `N[C@@H](CCC(=O)O)C(=O)N[C@@H](CC(=O)O)C(=O)N[C@@H](CC(=O)O)C(=O)O` [Peptide-2, EDD] (H-Glu-Asp-Asp-OH), the “toxicity (CCK-8 activity)” value in series [2] is listed as “did not exhibit toxicity”.
